Publication PMC5830761 (Royal Society Open Science, 2018)

Assays:
[1] = target: T1, human A3 receptor (Homo sapiens, UniProt P0DMS8); test: Competitive radioligand binding to human A3 AR ([125I]I-AB-MECA), CHO cell membranes; settings: CHO cells expressing human A3AR; radioligand [125I]I-AB-MECA; mean ± SEM; read-out: Ki hA3AR
T1 construct: expressed in transfected cells; host or cells: CHO cells, membranes
T1 sequence (P0DMS8 1-318): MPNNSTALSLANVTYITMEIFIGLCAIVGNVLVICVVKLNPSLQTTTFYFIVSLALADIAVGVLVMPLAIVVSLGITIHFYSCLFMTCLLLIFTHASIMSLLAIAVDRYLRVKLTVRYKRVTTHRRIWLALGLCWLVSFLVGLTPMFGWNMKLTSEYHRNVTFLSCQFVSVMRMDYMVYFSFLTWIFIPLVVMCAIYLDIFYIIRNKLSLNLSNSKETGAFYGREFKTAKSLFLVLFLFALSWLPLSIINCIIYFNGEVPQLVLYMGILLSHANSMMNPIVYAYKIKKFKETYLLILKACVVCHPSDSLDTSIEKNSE
Method: (§1) CHO (Chinese hamster ovary) cells expressing the recombinant human ARs^2 were cultured in DMEM supplemented with 10% fetal bovine serum, 100 units/mL penicillin, 100 µg/mL streptomycin, 2 µmol/mL glutamine, and 800 µg/mL geneticin. Cells were harvested by trypsinization. After homogenization and suspension, cells were centrifuged at 500 g for 10 min, and the pellet was resuspended in 50 mM Tris-HCl buffer (pH 8.0) containing 10 mM MgCl2, 1 mM EDTA, and 0.1 mg/mL CHAPS. […] The protein concentration was measured using the Bradford assay.^3
Human A3 receptor: For competitive binding assay, each tube contained 100 µL of membrane suspension (20 µg protein), 50 µL of [^125I]I-AB-MECA (0.5 nM), and 50 µL of increasing concentrations of the nucleoside derivative in Tris-HCl buffer (50 mM, pH 7.4) containing 10 mM MgCl2 and 1 mM EDTA. Nonspecific binding was determined using 10 µM of Cl-IB-MECA in the buffer. The mixtures were incubated at 25 °C for 60 min. Binding reactions were terminated by filtration through Whatman GF/B filters under reduced pressure using a MT-24 cell harvester (Brandell, Gaithersburgh, MD). Filters were washed three times with 9 mL of ice-cold buffer. Radioactivity was determined in a Beckman 5500B γ-counter.

[2] = target: T2, human A2A receptors (Homo sapiens, UniProt P29274); test: Radioligand binding to human A2A AR ([3H]CGS21680); settings: cells expressing human A2AAR; radioligand [3H]CGS21680; mean ± SEM; read-out: Ki hA2AAR
T2 construct: expressed in transfected cells
Method: as §1, with “CHAPS. The suspension was homogenized with an electric homogenizer for 10 s and was then recentrifuged at 20000 g for 20 min at 4 °C.” for “CHAPS.”
(§2) Human A1 and A2A receptors: For binding to human A1 receptors, [^3H]CCPA (1 nM) was incubated with membranes (40 µg/tube) from CHO cells stably expressing human A1 receptors at 25 °C for 60 min in 50 mM Tris-HCl buffer (pH 7.4; MgCl2, 10 mM) in a total assay volume of 200 µL. Nonspecific binding was determined using 10 µM of CPA. For human A2A receptor binding, membranes (20 µg/tube) from HEK-293 cells stably expressing human A2A receptors were incubated with 15 nM [^3H]CGS21680 at 25 °C for 60 min in 200 µL of 50 mM Tris-HCl, pH 7.4, containing 10 mM MgCl2. NECA (10 µM) was used to define nonspecific binding. Reaction was terminated by filtration with GF/B filters.

[3] = target: T3, human A1 receptors (Homo sapiens, UniProt P30542); test: Radioligand binding to human A1 AR ([3H]CCPA), CHO cell membranes; settings: mean ± SEM; for Ki: CHO cells expressing human A1AR, radioligand [3H]CCPA, read-out: Ki hA1AR
T3 sequence (P30542 1-326): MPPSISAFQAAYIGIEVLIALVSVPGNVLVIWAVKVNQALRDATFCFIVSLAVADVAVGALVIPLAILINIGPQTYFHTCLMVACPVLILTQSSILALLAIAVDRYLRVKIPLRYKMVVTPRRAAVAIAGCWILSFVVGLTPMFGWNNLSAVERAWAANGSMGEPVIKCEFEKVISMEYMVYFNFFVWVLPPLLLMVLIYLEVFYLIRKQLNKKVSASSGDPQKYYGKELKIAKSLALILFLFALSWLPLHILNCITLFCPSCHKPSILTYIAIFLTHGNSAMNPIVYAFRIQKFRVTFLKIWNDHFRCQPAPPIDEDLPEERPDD
Method: as §1, with “CHAPS. The suspension was homogenized with an electric homogenizer for 10 s and was then recentrifuged at 20000 g for 20 min at 4 °C.” for “CHAPS.”
as §2

T2 sequence (P29274 whole entry): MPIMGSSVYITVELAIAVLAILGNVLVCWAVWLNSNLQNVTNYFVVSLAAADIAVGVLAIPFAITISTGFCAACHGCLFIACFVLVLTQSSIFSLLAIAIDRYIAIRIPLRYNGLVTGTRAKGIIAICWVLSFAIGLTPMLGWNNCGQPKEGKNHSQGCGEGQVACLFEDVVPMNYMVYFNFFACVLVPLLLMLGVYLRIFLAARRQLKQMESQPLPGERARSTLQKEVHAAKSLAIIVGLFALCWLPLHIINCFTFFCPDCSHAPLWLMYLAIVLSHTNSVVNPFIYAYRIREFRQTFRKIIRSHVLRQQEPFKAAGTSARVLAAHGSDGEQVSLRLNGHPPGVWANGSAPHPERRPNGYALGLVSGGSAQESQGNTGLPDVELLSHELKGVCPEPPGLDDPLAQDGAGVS

Ki [1]	Ki [2]	inhibition at 10 µM ([3]; at 10 µM, weak binding, corresponding to IC50 ≥ 10 µM, [3H]CCPA, read-out: % inhibition at 10 µM hA1AR)	Ki [3]	SMILES
679 ± 149 nM	2770 ± 500 nM	47%		Cn1cc(CCOc2nc(N)c3ncn([C@@H]4O[C@H](CO)[C@@H](O)[C@H]4O)c3n2)c2ccc(Br)cc21 [compound 9]
177 ± 43 nM	262 ± 192 nM		230 ± 26 nM	Cn1cc(CCCOc2nc(N)c3ncn([C@@H]4O[C@H](CO)[C@@H](O)[C@H]4O)c3n2)c2ccc(Br)cc21 [compound 13, 2-(6"-Bromo-1"-Methyl-3"-indolylpropoxy)adenosine]
491 ± 143 nM	371 ± 79 nM		152 ± 49 nM	Nc1nc(OCCCc2cn(Cc3ccccc3)c3cc(Br)ccc23)nc2c1ncn2[C@@H]1O[C@H](CO)[C@@H](O)[C@H]1O [compound 14, 2-(6"-Bromo-1"-Benzyl-3"-indolylpropoxy)adenosine]
532 ± 144 nM	380 ± 81 nM		217 ± 57 nM	Nc1nc(OCCc2cn(Cc3ccccc3)c3cc(Br)ccc23)nc2c1ncn2[C@@H]1O[C@H](CO)[C@@H](O)[C@H]1O [compound 10]
